Laboratory results taken from ChEMBL document CHEMBL4229350, “Antimicrobial activity and self-assembly behavior of antimicrobial peptide chensinin-1b with lipophilic alkyl tails” (Eur J Med Chem, 2018).
Converted amounts (≈) assume the structure as drawn. The source made the active and inactive calls. No cut-off for these calls is given here. Peptide text beside a SMILES is read from it. * marks the point of attachment. Palmitoyl = CCCCCCCCCCCCCCCC(=O)*

Assays:
Lipid bilayer [1] = assay: Induction of membrane permeabilization in calcein loaded LPS/PC/PG large unilamellar vesicles assessed as calcein leakage after 15 mins by fluorescence assay
Lipid bilayer [2] = assay: Induction of membrane permeabilization in calcein loaded PG/CL/PE large unilamellar vesicles assessed as calcein leakage at 6 uM after 15 mins by fluorescence assay relative to control
Lipid bilayer [3] = assay: Induction of membrane permeabilization in calcein loaded PG/CL large unilamellar vesicles assessed as calcein leakage at 6 uM after 15 mins by fluorescence assay relative to control
Lipid bilayer [4] = assay: Induction of membrane permeabilization in calcein loaded PG/CL/PE large unilamellar vesicles assessed as calcein leakage at 3 uM after 10 mins by fluorescence assay relative to control
Lipid bilayer [5] = assay: Induction of membrane permeabilization in calcein loaded PG/CL large unilamellar vesicles assessed as calcein leakage at 3 uM after 10 mins by fluorescence assay relative to control
Escherichia coli [6] = assay: Antimicrobial activity against Escherichia coli AS 1.349 assessed as induction of outer membrane permeabilization by measuring NPN uptake by fluorescence assay; type: functional, organism-based
Staphylococcus aureus [7] = assay: Antimicrobial activity against Staphylococcus aureus AS 1.72 assessed as induction of outer membrane permeabilization by measuring NPN uptake by fluorescence assay; type: functional, organism-based
Escherichia coli [8] = assay: Antimicrobial activity against Escherichia coli AS 1.349 assessed as induction of bacterial cytoplasmic membrane depolarization at 2 times MIC after 7 mins by diSC3-5 dye-based fluorescence assay; type: functional, organism-based
Staphylococcus aureus [9] = assay: Antimicrobial activity against Staphylococcus aureus AS 1.72 assessed as induction of bacterial cytoplasmic membrane depolarization at 2 times MIC after 6 mins by diSC3-5 dye-based fluorescence assay; type: functional, organism-based
[10] = Hemolytic activity against human erythrocytes after 1 hr; type: ADME, cell-based, Erythrocyte
MCF7 = assay: Cytotoxicity against human MCF7 cells assessed as reduction in cell viability after 1 hr by MTT assay; type: functional, cell-based; conditions: MCF7, 1 h
A-375 = assay: Cytotoxicity against human A375 cells assessed as reduction in cell viability after 1 hr by MTT assay; type: functional, cell-based; conditions: A-375, 1 h
HeLa = assay: Cytotoxicity against human HeLa cells assessed as reduction in cell viability after 1 hr by MTT assay; type: functional, cell-based
Enterococcus faecalis = assay: Antimicrobial activity against Enterococcus faecalis CGMCC 1.595 after 18 hrs by micro dilution method; type: functional; conditions: CGMCC 1.595, 18 h
Enterococcus faecium = assay: Antimicrobial activity against Enterococcus faecium CGMCC 1.2334 after 18 hrs by micro dilution method; type: functional; conditions: CGMCC 1.2334, 18 h
Lactococcus lactis = assay: Antimicrobial activity against Streptococcus lactis AS 1.1690 after 18 hrs by micro dilution method; type: functional; conditions: AS 1.1690, 18 h
Bacillus cereus = assay: Antimicrobial activity against Bacillus cereus AS 1.126 after 18 hrs by micro dilution method; type: functional; conditions: AS 1.126, 18 h
Staphylococcus aureus [11] = assay: Antimicrobial activity against Staphylococcus aureus AS 1.72 after 18 hrs by micro dilution method; type: functional; conditions: AS 1.72, 18 h
Pseudomonas aeruginosa = assay: Antimicrobial activity against Pseudomonas aeruginosa CGMCC 1.860 after 18 hrs by micro dilution method; type: functional; conditions: CGMCC 1.860, 18 h
Escherichia coli [12] = assay: Antimicrobial activity against Escherichia coli AS 1.349 after 18 hrs by micro dilution method; type: functional; conditions: AS 1.349, 18 h
Lipid bilayer [13] = assay: Induction of membrane permeabilization in calcein loaded LPS/PC/PG large unilamellar vesicles assessed as calcein leakage at 50 uM after 15 mins by fluorescence assay relative to control
Lipid bilayer [14] = assay: Induction of membrane permeabilization in calcein loaded PC/cholesterol large unilamellar vesicles assessed as calcein leakage at 50 uM after 10 mins by fluorescence assay relative to control
Lipid bilayer [15] = assay: Induction of membrane permeabilization in PC/cholesterol large unilamellar vesicles assessed as blue shift by Tryptophan fluorescence spectroscopy
Lipid bilayer [16] = assay: Induction of membrane permeabilization in PG/CL/PE large unilamellar vesicles assessed as blue shift at compound to lipid ratio of 10 by Tryptophan fluorescence spectroscopy
Lipid bilayer [17] = assay: Induction of membrane permeabilization in PG/CL large unilamellar vesicles assessed as blue shift at compound to lipid ratio of 60 by Tryptophan fluorescence spectroscopy
U-937 [18] = assay: Antiinflammatory activity in human U937 cells assessed as inhibition of LPS-induced TNF-alpha production after 24 hrs by ELISA; type: functional, cell-based
U-937 [19] = assay: Antiinflammatory activity in human U937 cells assessed as inhibition of LPS-induced IL-6 production after 24 hrs by ELISA; type: functional, cell-based
U-937 [20] = assay: Antiinflammatory activity in human U937 cells assessed as inhibition of LPS-induced TNF-alpha production at 12.6 uM after 24 hrs by ELISA relative to control; type: functional; conditions: U-937, 24 h
U-937 [21] = assay: Antiinflammatory activity in human U937 cells assessed as inhibition of LPS-induced TNF-alpha production at 6.25 uM after 24 hrs by ELISA relative to control; type: functional; conditions: U-937, 24 h
U-937 [22] = assay: Antiinflammatory activity in human U937 cells assessed as inhibition of LPS-induced TNF-alpha production at 3.13 uM after 24 hrs by ELISA relative to control; type: functional; conditions: U-937, 24 h
U-937 [23] = assay: Antiinflammatory activity in human U937 cells assessed as inhibition of LPS-induced IL-6 production at 12.6 uM after 24 hrs by ELISA relative to control; type: functional; conditions: U-937, 24 h
U-937 [24] = assay: Antiinflammatory activity in human U937 cells assessed as inhibition of LPS-induced IL-6 production at 6.25 uM after 24 hrs by ELISA relative to control; type: functional; conditions: U-937, 24 h
U-937 [25] = assay: Antiinflammatory activity in human U937 cells assessed as inhibition of LPS-induced IL-6 production at 3.13 uM after 24 hrs by ELISA relative to control; type: functional; conditions: U-937, 24 h
[26] = Cytotoxicity against human U937 cells assessed as cell viability at 3.13 to 12.6 uM after 1 hr by MTT assay relative to control; type: cell-based, U-937; conditions: read-out: Activity
Lipopolysaccharide (LPS) [27] = assay: Binding affinity to Escherichia coli 0111:B4 LPS assessed as equilibrium association constant by ITC method
Lipopolysaccharide (LPS) [28] = assay: Binding affinity to Escherichia coli 0111:B4 LPS by ITC method
Lipopolysaccharide (LPS) [29] = assay: Induction of LPS micelles disaggergation assessed as abundant particle size formation at 2 uM by DLS method
Lipopolysaccharide (LPS) [30] = assay: Induction of LPS micelles disaggergation assessed as small particle distribution at 2 uM by DLS method
[31] = Self-assembly property assessed as diameter of monodispersed micelles at 1 mg/ml at pH 7 by TEM analysis; type: physicochemical
[32] = Self-assembly property assessed as diameter of monodispersed micelles at 1 mg/ml at pH 2 by TEM analysis; type: physicochemical
[33] = Self-assembly property assessed as diameter of tightly packed nanofibers at 1 mg/ml at pH 2 by TEM analysis; type: physicochemical

- Activity (Lipid bilayer [1]): Dose-dependent effect
- Activity (Lipid bilayer [2]): 54%
- Activity (Lipid bilayer [3]): 80%
- Activity (Lipid bilayer [4]): 33%
- Activity (Lipid bilayer [5]): 46%
- MIC (Enterococcus faecalis): 6.25 µM (≈ 17.4 µg/mL)
- MIC (Enterococcus faecium): 3.13 µM (≈ 8.71 µg/mL)
- MIC (Lactococcus lactis): 3.13 µM (≈ 8.71 µg/mL)
- MIC (Bacillus cereus): 6.25 µM (≈ 17.4 µg/mL)
- MIC (Staphylococcus aureus [11]): 12.5 µM (≈ 34.8 µg/mL)
- MIC (Pseudomonas aeruginosa): 6.25 µM (≈ 17.4 µg/mL)
- MIC (Escherichia coli [12]): 12.5 µM (≈ 34.8 µg/mL)
- Activity (Lipid bilayer [13]): 55%
- Activity (Lipid bilayer [14]): 20%
- Activity (Lipid bilayer [15]): inactive
- Activity (Lipid bilayer [16]): 14 nm
- Activity (Lipid bilayer [17]): 18 nm
- Ka (Lipopolysaccharide (LPS) [27]): 114 mM⁻¹
- Activity (Lipopolysaccharide (LPS) [29]): 100 nm
- Activity (Lipopolysaccharide (LPS) [30]): 400 nm
- Activity [31]: 24 nm
- Activity [32]: 5460 nm
- Activity [33]: 200 nm
Compound: CCCCCCCCCCCCCCCC(=O)N[C@@H](CO)C(=O)N[C@@H](CCCCN)C(=O)N[C@H](C(=O)N[C@@H](Cc1c[nH]c2ccccc12)C(=O)N[C@@H](CCCNC(=N)N)C(=O)N[C@@H](Cc1cnc[nH]1)C(=O)N[C@@H](Cc1c[nH]c2ccccc12)C(=O)N[C@@H](CCCNC(=N)N)C(=O)N[C@@H](CCCNC(=N)N)C(=O)N[C@@H](Cc1ccccc1)C(=O)N[C@@H](Cc1c[nH]c2ccccc12)C(=O)N[C@@H](Cc1cnc[nH]1)C(=O)N[C@@H](CCCNC(=N)N)C(=O)N[C@@H](C)C(=O)N[C@@H](Cc1cnc[nH]1)C(=O)N[C@@H](CCCNC(=N)N)C(=O)N[C@@H](CCCCN)C(=O)N[C@@H](CC(C)C)C(=O)O)C(C)C (Palmitoyl-SKVWRHWRRFWHRAHRKL-OH)
- Activity (Escherichia coli [6]): Dose-dependent effect
- Activity (Staphylococcus aureus [7]): Dose-dependent effect
- Activity (Escherichia coli [8]): Active
- Activity (Staphylococcus aureus [9]): Active
- HC50 at 1 h [10]: > 500 µM
- IC50 (MCF7): 20.6 µM
- IC50 (A-375): 18.2 µM
- IC50 (HeLa): 21 µM
- inhibition (U-937 [18]): Dose-dependent effect
- inhibition (U-937 [19]): Dose-dependent effect
- inhibition at 12.6 µM (U-937 [20]): 35%
- inhibition at 6.25 µM (U-937 [21]): 32%
- inhibition at 3.13 µM (U-937 [22]): 24%
- inhibition at 12.6 µM (U-937 [23]): 35%
- inhibition at 6.25 µM (U-937 [24]): 31%
- inhibition at 3.13 µM (U-937 [25]): 27%
- viability at 1 h, up to 12.6 µM [26]: 80%
- Kd (Lipopolysaccharide (LPS) [28]): 8.77 µM
